# Results: US20230240290A1, “USE OF (Z)-3-HEXENYL ESTERS AND METHOD FOR PROTECTING PLANTS AGAINST PESTS” (UNIVERSITAT POLITÈCNICA DE VALÈNCIA, priority 2020, published 2023)
# Assays:
# [1] = tested on: jasmonic acid pathway; conditions: corn exposed to the volatile; Engelberth et al. 2004; cited from earlier work
# [2] = tested on: SI-PI-I (marker for plant proteinase inhibitors); experiment: Transcriptional response of SI-PI-I in tomato plants exposed to volatiles (laboratory); assay type: in vivo, Solanum lycopersicum cv. Moneymaker; conditions: intact tomato plants exposed 24 h; filter paper, 1:10,000 ester:methanol; n=8
# Procedure: (§1) Moneymaker tomato plants were used. Two weeks after seed germination, the seedlings were individually transplanted into pots (8×8×8 cm). The plants were kept at 25±2° C., with a constant relative humidity of 65%±5% and a 14:10 h (light:dark) photoperiod. Tomato plants that had not received any pesticide treatment at four weeks of age (about 20 cm tall) were used. All volatiles used were obtained from Sigma-Aldrich (St. Louis, Mo., USA). Each volatile was exposed by using a 2×2 cm piece of filter paper on which 10 μl of a solution containing the corresponding volatile at a concentration of 1:10,000 [(Z)-3-hexenyl ester:methanol] was impregnated as an emitting source of the corresponding volatile (Pérez-Hedo, M. et al. Biocontrol, 63: 203-213 (2018)).
# (§2) To activate a plant, two pieces of filter paper impregnated with the volatile were placed at the bottom of a 30×30×30 cm plastic cage (BugDorm-1 Insect Tents; MegaView Science Co., Ltd, Taichung, Taiwan) into which the plant was introduced. A control treatment was carried out in which the two pieces of filter paper were impregnated with 10 μl of methanol. Eight repetitions per treatment were performed. The plants of the treatments were kept exposed to the volatile without disturbing for 24 hours in separate and isolated climatic chambers to avoid any interference from the volatiles and were kept at 25±2° C., 65±10% RH, and a 14:10 h (L:D) photoperiod. […]
# (§3) The methodology followed for extracting and quantifying gene expression was described by Pérez-Hedo et al. Journal of Pest Science 3: 543-554 (2015). The primers used were forward primer: 5′-[…]-3′ (SEQ ID NO: 1) and reverse primer: 5′-[…]-3′ (SEQ ID NO: 2) for the quantification of PR1, forward primer: 5′-[…]-3′ (SEQ ID NO: 3) and reverse primer: 5′-[…]-3′ (SEQ ID NO: 4) for SI-PI-I, and forward primer: 5′-[…]-3′ (SEQ ID NO: 5) and reverse primer: 5′-[…]-3′ (SEQ ID NO: 6) for the SI-PI-II gene. […]
# [3] = tested on: PR1 (marker gene for the salicylic acid signaling pathway); experiment: Transcriptional response of defense gene PR1 in tomato plants exposed to volatiles (laboratory); assay type: in vivo, Solanum lycopersicum cv. Moneymaker; conditions: intact tomato plants exposed 24 h; filter paper, 1:10,000 ester:methanol; n=8
# Procedure: as §1, §2, §3
# [4] = tested on: SI-PI-II (marker for plant proteinase inhibitors); experiment: Transcriptional response of SI-PI-II in tomato plants exposed to volatiles (laboratory); assay type: in vivo, Solanum lycopersicum cv. Moneymaker; conditions: intact tomato plants exposed 24 h; filter paper, 1:10,000 ester:methanol; n=8
# Procedure: as §1, §2, §3
# [5] = tested on: Encarsia formosa; conditions: Pérez-Hedo et al. Biocontrol 2018; cited from earlier work
# [6] = tested on: Bemisia tabaci; conditions: Pérez-Hedo et al. Biocontrol 2018; cited from earlier work
# [7] = tested on: T. absoluta; conditions: Pérez-Hedo et al. Biocontrol 2018; cited from earlier work
SMILES,Jasmonic acid pathway expression [1],Transcriptional response of SI-PI-I compared to the control [2],Transcriptional response of PR1 compared to the control [3],Transcriptional response of SI-PI-II compared to the control [4],other results
CC/C=C\CCO [(Z)-3-hexen-1-ol],overexpress,–,–,–,–
CC/C=C\CC=O [(Z)-3-hexenal],overexpress,–,–,–,–
CC/C=C\CCOC(C)=O [(Z)-3-hexenyl acetate],overexpress,significantly overexpressed,significantly overexpressed,significantly overexpressed,–
CC/C=C\CCOC(=O)CCC [(Z)-3-hexenyl butanoate],–,significantly overexpressed,significantly overexpressed,significantly overexpressed,–
COC(=O)c1ccccc1O [methyl salicylate],–,–,–,–,Effect of the volatile on E. formosa [5]: attractive; Effect of the volatile on B. tabaci [6]: repellent; Effect of the volatile on T. absoluta [7]: no effect
